“And” between values parts separate entries of the source, which are not always exact repeats. Equal values may be shown once. Read-outs that look alike come from different tables or passages of the source.
Key:
foldon homo-trimer = experiment: ITEM-FIVE: collision-induced dissociation of foldon homo-trimer 5+ ions in the gas phase (nanoESI-MS); type: binding, T4 phage; conditions: for k#m0g (apparent kinetic constant of trimer dissociation) / TambΔS#m0g / ΔG#m0g (pseudo thermodynamic activation free energy of trimer dissociation) / ΔH#m0g (activation enthalpy of trimer dissociation): gas phase, two measurement series averaged; for k#m0g (apparent kinetic constant of trimer dissociation): CID ΔCV 0-50 V, linear extrapolation to ambient temperature (298 K), dimensionless, sprayed from 50 mM ammonium acetate pH 5.5, 0.1 µg/µl; for TambΔS#m0g: Tamb 298 K; for ΔG#m0g (pseudo thermodynamic activation free energy of trimer dissociation) / ΔH#m0g (activation enthalpy of trimer dissociation): extrapolated to ambient temperature
Source text: ITEM-FIVE investigations started with electrospraying foldon-containing solutions and by setting the first mass filter (quadrupole) to selecting only foldon trimer ions for transmission into the instrument’s collision cell.
After mass filtering, this was the only remaining ion signal in the mass spectrum because the energy in the collision cell was too low to initiate complex dissociation. […] At 20 V the trimer ion signals were barely visible (Fig. 2C), leaving mass spectra with dominating ion signals of dimers and monomers. Finally, at 40 V, the only ion signals which remained visible in the mass spectra were those of the monomers (Fig. 2D). Independent measurement series of complex dissociations were recorded twice for each foldon variant (Tables S1–S7). […] Plotting the courses of normalized educt ion intensities as functions of ∆CV provided sigmoidal shaped curves with Boltzmann characteristics for all foldons (Fig. 3).
Approximating the tangent lines at the ∆CV50 values of all the Boltzmann curves (R^2 = 0.999 for all foldons; cf. Table S8) and upon transforming ∆CV values to reaction temperatures (applying formula (5) see Supplement) enabled drawing of Arrhenius plots (Fig. S11, applying formulas (1) and (5)) and Ellingham diagrams (Fig. S12, formulas (3), (4) and (5)). The values were calculated from formulas (2), (5) and (6). […] Likewise, the pseudo thermodynamic activation free energy values, followed in all Ellingham diagrams courses with almost parallel lining up of linear courses of all foldons when plotted against (according to formula (4)).
Mass spectra were acquired on a Synapt G2-S instrument (Waters MS-Technologies, Wilmslow, UK). Instrument calibration was performed with a sodium iodide solution with a concentration of 2 mg/ml, dissolved in isopropanol/water (50:50 v/v).
All mass spectra were acquired in positive ion mode applying a mass window from m/z 400 to m/z 8000. NanoESI measurements were performed with the following instrument settings: capillary voltage: 1.0–1.2 kV, sample cone voltage: 13 V source offset: 12 V, source gas flow: 0.0 ml/min, cone gas flow: 9 l/h, helium cell gas flow: 40 ml/min, IMS gas flow: 20.0 ml/min, trap collision voltage for nanoESI-MS analysis: 0–2 V, source temperature: 40 °C; trap gas flow: 2.0 ml/min, reflectron grid 1.449 kV. Data acquisition and processing were done with the MassLynx software version 4.1 (Waters MS-Technologies, Wilmslow, UK)[31].
ITEM-FIVE experiments started with isolating the quintuply charged foldon trimer ion signal as the respective precursor ion[31]. Then the collision cell voltage difference (ΔCV) in the trap cell was increased stepwise from: 0 V, to 2 V, 5 V, 7 V, 10 V, 12 V, 15 V, 20 V, 30 V, 40 V, and 50 V. At each ΔCV setting mass spectra were accumulated for 2 min and scans were combined using the MassLynx Software version 4.1 (Waters MS Technologies, Wilmslow, UK). Two measurement series were recorded. Mass spectrometry data have been deposited at the ProteomeXchange Consortium’s PRIDE repository[62] with the dataset identifier PXD064233.
From each mass spectrum one list with mass/intensity pair data was copied into a text file and then imported into the OriginPro 2017G software (64 bit) (OriginLab Corporation, Northampton, MA, USA) where it was further processed to eliminate baseline and noise signals. Then, the processed mass list data were converted to a Microsoft Access 2010 database from which data of pre-defined target masses were extracted with a threshold of ± 0.5 Da. Target masses were selected to represent the most characteristic ion signals in the respective mass spectrum: educts were represented by the trimer’s 5 + ion signal and products by the dimer’s 3 + ion signal and the monomer’s 2 + ion signal. […] Ion signal intensities were normalized by setting the sum of all remaining target mass ion signals to 100%. […]

[1] = Travelling wave ion mobility: drift times and CCS of homo-trimer 5+ ions; type: physicochemical; conditions: TWIM, nitrogen; for TWCCSN2 exp. (mean): 5+ trimer ion; for TWCCSN2 exp. (mean) / dt (mean): 50 mM ammonium acetate pH 5.5, c = 0.1 mg/ml, mean of two independent measurements; for dt (mean): centroided 5+ trimer ion signal; for FWHM: drift time peak of 5+ trimer ion, unit assumed
Experimental: Ion mobility measurements were performed using a Synapt G2-S instrument (Waters Corporation, Wilmslow, UK) equipped with a travelling wave ion mobility (TWIM) cell. Nitrogen was the neutral buffer gas for all TWIM experiments. All mass spectra were acquired in positive ion mode applying a mass window from m/z 400 to m/z 8000. Instrument settings were as follows: capillary voltage: 1.2 kV, sample cone voltage: 13 V, source offset: 12 V, source temperature: 40 °C, trap collision energy: 2.0 V, pusher: 1900 V, puller: 1370 V, reflectron grid 1.451 kV, source gas flow: 0.0 ml/min, cone gas flow: 9 l/h, nano flow gas pressure: 0.2 bar, helium cell gas flow: 140 ml/min, IMS gas flow: 50.0 ml/min, trap collision voltage: 2 V, trap gas flow: 5.0 ml/min, IMS wave velocity 1600 m/s, wave height: 30.0 V. Data acquisition, arrival time determinations, and processing were done with the MassLynx software version 4.1 (Waters MS-Technologies, Wilmslow, UK[31]. TWIM calibration was done with bovine serum albumin, myoglobin, cytochrome c, ubiquitin, and insulin using published CCS values (Table S18)[66],[67] and applying the published algorithms for logarithmic fits[66],[68] as well as for linear fits[69].

[2] = Travelling wave ion mobility CCS calibration: drift times and TWCCSN2 of calibrant protein ions; type: physicochemical; conditions: drift gas nitrogen, repeat determinations printed as separate rows; for dt exp.: in ms; for TWCCSN2: in Å2
Source text: Supplement 41598_2025_28101_MOESM1_ESM.docx, table 25: Table S18: Drift times, experimentally determined CCS, and literature references of calibrant proteins. | column: CCS determinations ^a); CCS from literature ^a)

[3] = drift gas nitrogen, in Å2, cited from earlier work
Source text: Supplement 41598_2025_28101_MOESM1_ESM.docx, table 25: Table S18: Drift times, experimentally determined CCS, and literature references of calibrant proteins. | column: CCS from literature ^a)

[4] = Boltzmann curve parameter, 5+ trimer ion, mean of two measurement series, Table S8
[5] = collision cell voltage difference at half dissociation of 5+ trimer ion, Boltzmann fit
[6] = calibrant ion z = 5, ion at m/z 2473.12
[7] = calibrant ion z = 5, ion at m/z 2473.14

H-Dip^2IPEAPRDala^10QAYVRKphe^17GEWVLLSTFL-NH2 [foldon 6, T4Ff variant without Gly1, Dip at position 2]
ΔCV50 (foldon homo-trimer; [4]): 13.42 | ΔCV50 (foldon homo-trimer; [5]): 13.4 V | k#m0g (apparent kinetic constant of trimer dissociation) (foldon homo-trimer; 5+ trimer ion): 3.47 × 10^8 | TambΔS#m0g (foldon homo-trimer; 5+ trimer ion): 10.1 kcal/mol | ΔG#m0g (pseudo thermodynamic activation free energy of trimer dissociation) (foldon homo-trimer; 5+ trimer ion): 5.88 kcal/mol | ΔH#m0g (activation enthalpy of trimer dissociation) (foldon homo-trimer; 5+ trimer ion): 16 kcal/mol | TWCCSN2 exp. (mean) [1]: 1177 Å^2 | dt (mean) [1]: 11.3 ms | FWHM [1]: 1.5 ms

H-Gly^1Tyr^2IPEAPRDGly^10QAYVRKAsp^17GEWVLLSTFL-OH [foldon 0, original T4 Fibritin foldon mini-protein of 27 amino acids, purchased, forms homo-trimers, reference compound]
ΔCV50 (foldon homo-trimer; [4]): 13.51 | ΔCV50 (foldon homo-trimer; [5]): 13.5 V | k#m0g (apparent kinetic constant of trimer dissociation) (foldon homo-trimer; 5+ trimer ion): 3.61 × 10^8 | TambΔS#m0g (foldon homo-trimer; 5+ trimer ion): 9.56 kcal/mol | ΔG#m0g (pseudo thermodynamic activation free energy of trimer dissociation) (foldon homo-trimer; 5+ trimer ion): 5.71 kcal/mol | ΔH#m0g (activation enthalpy of trimer dissociation) (foldon homo-trimer; 5+ trimer ion): 15.3 kcal/mol | TWCCSN2 exp. (mean) [1]: 1160 Å^2 | dt (mean) [1]: 10.8 ms | FWHM [1]: 1.9 ms

H-Gly^1Tyr^2IPEAPRDala^10QAYVRKphe^17GEWVLLSTFL-NH2 [foldon 1, T4Ff variant with D-Ala10, D-Phe17 and C-terminal carboxamide]
ΔCV50 (foldon homo-trimer; [4]): 11.04 | ΔCV50 (foldon homo-trimer; [5]): 11.0 V | k#m0g (apparent kinetic constant of trimer dissociation) (foldon homo-trimer; 5+ trimer ion): 6.61 × 10^9 | TambΔS#m0g (foldon homo-trimer; 5+ trimer ion): 8.44 kcal/mol | ΔG#m0g (pseudo thermodynamic activation free energy of trimer dissociation) (foldon homo-trimer; 5+ trimer ion): 3.94 kcal/mol | ΔH#m0g (activation enthalpy of trimer dissociation) (foldon homo-trimer; 5+ trimer ion): 12.4 kcal/mol | TWCCSN2 exp. (mean) [1]: 1172 Å^2 | dt (mean) [1]: 11.1 ms | FWHM [1]: 1.5 ms

H-Gly^1tyr^2IPEAPRDala^10QAYVRKphe^17GEWVLLSTFL-NH2 [foldon 2]
k#m0g (apparent kinetic constant of trimer dissociation) (foldon homo-trimer; 5+ trimer ion): 3.60 × 10^9 | TambΔS#m0g (foldon homo-trimer; 5+ trimer ion): 9.03 kcal/mol | ΔG#m0g (pseudo thermodynamic activation free energy of trimer dissociation) (foldon homo-trimer; 5+ trimer ion): 4.42 kcal/mol | ΔH#m0g (activation enthalpy of trimer dissociation) (foldon homo-trimer; 5+ trimer ion): 13.5 kcal/mol | TWCCSN2 exp. (mean) [1]: 1169 Å^2 | dt (mean) [1]: 11.0 ms | FWHM [1]: 1.5 ms

H-Nal^2IPEAPRDala^10QAYVRKphe^17GEWVLLSTFL-NH2 [foldon 5, T4Ff variant without Gly1, Nal at position 2]
ΔCV50 (foldon homo-trimer; [4]): 12.25 | k#m0g (apparent kinetic constant of trimer dissociation) (foldon homo-trimer; 5+ trimer ion): 1.22 × 10^9 | TambΔS#m0g (foldon homo-trimer; 5+ trimer ion): 9.56 kcal/mol | ΔG#m0g (pseudo thermodynamic activation free energy of trimer dissociation) (foldon homo-trimer; 5+ trimer ion): 5.04 kcal/mol | ΔH#m0g (activation enthalpy of trimer dissociation) (foldon homo-trimer; 5+ trimer ion): 14.6 kcal/mol | TWCCSN2 exp. (mean) [1]: 1169 Å^2 | dt (mean) [1]: 11.0 ms | FWHM [1]: 0.8 ms

H-Tyr^2IPEAPRDala^10QAYVRKphe^17GEWVLLSTFL-NH2 [foldon 3]
ΔCV50 (foldon homo-trimer; [4]): 11.63 | k#m0g (apparent kinetic constant of trimer dissociation) (foldon homo-trimer; 5+ trimer ion): 2.64 × 10^9 | TambΔS#m0g (foldon homo-trimer; 5+ trimer ion): 8.99 kcal/mol | ΔG#m0g (pseudo thermodynamic activation free energy of trimer dissociation) (foldon homo-trimer; 5+ trimer ion): 4.57 kcal/mol | ΔH#m0g (activation enthalpy of trimer dissociation) (foldon homo-trimer; 5+ trimer ion): 13.6 kcal/mol | TWCCSN2 exp. (mean) [1]: 1164 Å^2 | dt (mean) [1]: 10.9 ms | FWHM [1]: 1.2 ms

H-tyr^2IPEAPRDala^10QAYVRKphe^17GEWVLLSTFL-NH2 [foldon 4, T4Ff variant without Gly1, D-Tyr at position 2]
ΔCV50 (foldon homo-trimer; [4]): 12.26 | k#m0g (apparent kinetic constant of trimer dissociation) (foldon homo-trimer; 5+ trimer ion): 1.17 × 10^9 | TambΔS#m0g (foldon homo-trimer; 5+ trimer ion): 9.27 kcal/mol | ΔG#m0g (pseudo thermodynamic activation free energy of trimer dissociation) (foldon homo-trimer; 5+ trimer ion): 5.07 kcal/mol | ΔH#m0g (activation enthalpy of trimer dissociation) (foldon homo-trimer; 5+ trimer ion): 14.3 kcal/mol | TWCCSN2 exp. (mean) [1]: 1164 Å^2 | dt (mean) [1]: 10.9 ms | FWHM [1]: 1.6 ms

cytochrome c
dt exp. [2, 6]: 12.03 | dt exp. [2, 7]: 11.89 | TWCCSN2 [2, 6]: 1204 | TWCCSN2 [2, 7]: 1199 | dt exp. ([2]; calibrant ion z = 8): 10.23 and 10.37 | TWCCSN2 ([2]; calibrant ion z = 8): 1827 and 1835 | CCS from literature, CCS exp. ([3]; calibrant ion z = 5): 1146 | CCS from literature, CCS exp. ([3]; calibrant ion z = 6, two literature values): 1477 and 1490 | CCS from literature, CCS exp. ([3]; calibrant ion z = 7): 1590

insulin
dt exp. ([2]; calibrant ion z = 3): 12.3 and 12.44 | TWCCSN2 ([2]; calibrant ion z = 3): 729 and 732 | dt exp. ([2]; calibrant ion z = 4): 8.43 and 8.57 | TWCCSN2 ([2]; calibrant ion z = 4): 865 and 868 | dt exp. ([2]; calibrant ion z = 5): 7.19 | TWCCSN2 ([2]; calibrant ion z = 5): 1038

serum albumin
dt exp. ([2]; calibrant ion z = 15): 18.80 | TWCCSN2 ([2]; calibrant ion z = 15): 4310 | CCS from literature, CCS exp. ([3]; calibrant ion z = 15): 4490 | CCS from literature, CCS exp. ([3]; calibrant ion z = 16): 4470 | CCS from literature, CCS exp. ([3]; calibrant ion z = 17): 4490

ubiquitin
dt exp. ([2]; calibrant ion z = 4): 11.75 | TWCCSN2 ([2]; calibrant ion z = 4): 956 | CCS from literature, CCS exp. ([3]; calibrant ion z = 4): 949 | CCS from literature, CCS exp. ([3]; calibrant ion z = 5): 1011

— PMC12644675, “The mass spectrometric intact transition epitope mapping method supports protein engineering of foldon trimer variants” (Scientific Reports, 2025)
